This is an account of results in patent US20250163384A1, “ORGANOIDS DERIVED FROM HUMAN COLONIC CELLS AND METHODS OF MAKING AND USING THE SAME” (priority 2022, published 2025).

Common to all, as to assay type: cell-based, human
The test system of one assay is ERK. Briefly: ERK kinase translocation reporter (ERK-KTR) activity in GiLA1 organoid monolayers. The note with it: for time to activation of ERK: GiLA1 monolayers, ERK activation methods compared. The protocol:
384-well plates were imaged with fluorescent microscopy on a Nikon Eclipse TI2 automated microscope. For quantification of wave dynamics, organoids were imaged every 10-30 min. Tracking and segmentation of single cells in time lapse images in FIG. 2 was performed using the MATLAB program p53Cinema (Reyes et al., 2019). Analysis of the extracted data was performed in MATLAB. For the ERK activity heat maps in FIG. 3, images of the ERK-KTRmRuby2 and the H2B-iRFP670 were captured every 7 min for 24 hr. For each frame, individual nuclei were segmented using a MATLAB script developed in-house that identifies nuclei based on the H2B-iRFP670 images. The cytoplasmic ERK-KTRmRuby2 signal was obtained by creating a two pixel wide annulus surrounding the nucleus and averaging the intensity. Cells with active ERK were identified as having a mean ERK-KTR cytoplasmic signal>the mean ERK-KTR nuclear signal. The density-based spatial clustering of applications with noise algorithm (dbscan, MATLAB, 2021b) was performed on the centroids of ERK active cells to identify spatial clusters of cells with active ERK. A boundary was drawn around the spatial clusters using the boundary algorithm in MATLAB. The ERK positive regions of each frame were summed up to generate the heat map in MATLAB. MAPK/ERK signaling is a critical regulatory pathway involved in maintaining homeostasis of epithelia in the gut (Wei et al., 2020). To assess ERK activity in human organoid monolayers over time, we utilized a well-characterized ERK kinase translocation reporter (ERK-KTR) (Regot et al., 2014). The ERK-KTR utilizes a bipartite nuclear localization signal (NLS) and nuclear export signal (NES) to transform ERK kinase activity into a nuclear to cytoplasmic shuttling event that is easily quantified by microscopy in organoid monolayers (FIG. 3A). We transduced the GiLA1 organoid line with a H2B-iRFP670 nuclear marker and ERK-KTR-mRuby2 reporter to perform nuclear and cytoplasmic segmentation and calculate nuclear-to-cytoplasmic ratios of the ERK-KTR (FIG. 3A, FIG. 3B and FIG. 9A).

The test system of assay [1] is GiLA1 organoid monolayers. Briefly: Tissue patterning (nodes / cell clusters) in GiLA1 organoid monolayers. The following applies: for speed of node loss / patterning defects: GiLA1 monolayers, ERK activation methods compared. The protocol:
SCREENSTAR 384-well black plates (Grenier #781866) were coated with ice cold Matrigel (CB40230C) diluted 1:40 in Serum-free Advanced-DMEM F12 media (SFM) for 1 hr. Monolayers were prepared using our previously described protocol (Thorne et al., 2018; Sanman et al., 2020). Briefly, cells were removed from 3D Matrigel and resuspended in ice cold SFM and washed three times using ice cold SFM. Organoids were then dissociated by resuspension in Trypsin+10 μM Y-27 for 4 min followed by quenching in DMEM supplemented with 10% FBS and washing. Coating media was removed from 384-well plates and organoids plated at 7000 cells/well after counting using hemocytometer and cultured for 24 hr. Seeding media was then removed and replaced with complete LWRN media and changed daily for 7 days until cultures became confluent and tissue patterning was observed.
(§1) 384-well plates were imaged with fluorescent microscopy on a Nikon Eclipse TI2 automated microscope. For quantification of wave dynamics, organoids were imaged every 10-30 min. Tracking and segmentation of single cells in time lapse images in FIG. 2 was performed using the MATLAB program p53Cinema (Reyes et al., 2019). Analysis of the extracted data was performed in MATLAB. For the ERK activity heat maps in FIG. 3, images of the ERK-KTRmRuby2 and the H2B-iRFP670 were captured every 7 min for 24 hr. For each frame, individual nuclei were segmented using a MATLAB script developed in-house that identifies nuclei based on the H2B-iRFP670 images. The cytoplasmic ERK-KTRmRuby2 signal was obtained by creating a two pixel wide annulus surrounding the nucleus and averaging the intensity. Cells with active ERK were identified as having a mean ERK-KTR cytoplasmic signal>the mean ERK-KTR nuclear signal. The density-based spatial clustering of applications with noise algorithm (dbscan, MATLAB, 2021b) was performed on the centroids of ERK active cells to identify spatial clusters of cells with active ERK. A boundary was drawn around the spatial clusters using the boundary algorithm in MATLAB. The ERK positive regions of each frame were summed up to generate the heat map in MATLAB.
Since ERK waves are largely restricted to the post-mitotic, differentiated compartments in our gut organoid monolayer model, we hypothesized that ERK waves may help regulate the patterning observed in the GiLA1 monolayers by restricting the stem cell compartment. To test this hypothesis, we asked if global activation of ERK activity could disrupt the patterning of the organoid monolayers. a well-established activator of the ERK pathway, phorbol 12-myristate 13-acetate (PMA) was used to acutely activate ERK signaling across the monolayer. […] To determine if nodes re-formed once ERK activity returned to baseline, we treated GiLA1 monolayers with a pulse of 100 nM PMA for 1 min.

A further assay relates to Wnt signaling. Briefly: TopGFP Wnt reporter in organoid monolayers. The note with it: 3 μM pyrvinium, 72 hr. How it is done: Organoids were treated with either 3 μM pyrvinium to block Wnt signaling or 10 μM GSK-3 inhibitor to stimulate the Wnt pathway for 72 hr. Cells were fixed and stained for DAPI. Total GFP fluorescence across the monolayer was measured and normalized by mCherry control to obtain TopGFP measurements per condition. Significance between treatment groups was determined by t-test. Scale bar=100 μm.

Assay [2] deals with GiLA1 organoid monolayers. Briefly: Apoptosis-induced ERK waves and cell movement (particle image velocimetry) in GiLA1 organoid monolayers. The note with it: 5 μM Gefitinib (FIG. 3G), after an apoptotic event. The protocol:
as §1, with “The ERK positive regions of each frame were summed up to generate the heat map in MATLAB.” left out
To determine the properties of the ERK waves, about 450 cells were tracked and their ERK activity was assessed over time following an apoptotic event (FIG. 3D, left panel and FIG. 3E). […]

For `CCCCCCCCCCCCCC(=O)O[C@@H]1[C@@H](C)[C@@]2(O)[C@@H](C=C(CO)C[C@]3(O)C(=O)C(C)=C[C@@H]23)[C@@H]2C(C)(C)[C@]12OC(C)=O` [PMA, phorbol 12-myristate 13-acetate], in the assay with ERK (100 nM PMA, 20-30 min (FIGS. 4B and C)), the “ERK activity after continuous treatment” value is given as “immediate hyperactivated ERK was observed in all cells”. For the same molecule, the “time to activation of ERK” value with ERK is listed as “within hours”. Moreover, the “ERK levels after pulse treatment, later” value with ERK (pulse of 100 nM PMA for 1 min, after washout) is reported as “ERK levels returned to normal”. In the assay with ERK (pulse of 100 nM PMA for 1 min, read after 30 min), the “ERK activation after pulse treatment” value is “ERK activation in all cells”. The “loss of patterning (cell clusters)” value in assay [1] (100 nM PMA, by 24 hr post-treatment (FIG. 4D-F)) was “almost complete loss of cell clusters”. For the same molecule, the “speed of node loss / patterning defects” value in assay [1] is reported as “rapid node loss”. The “node and ERK-KTR activity after pulse, washout and chase” value in assay [1] (PMA pulse 1 min, washout, chase for 24 hr (FIG. 4G bottom)) was “node loss and resuppression of ERK activity”. The “nodes after pulse treatment” value in assay [1] (pulse of 100 nM PMA for 1 min) was “node loss”. For the same molecule, in assay [1] (pulse of 100 nM PMA for 1 min, by 48 hr (FIG. 4G)), the “re-formation of nodes after pulse treatment” value is given as “nodes did not re-form”.
In the case of `Cc1cc(/C=C/c2ccc3cc(N(C)C)ccc3[n+]2C)c(C)n1-c1ccccc1` [pyrvinium], in the assay with ERK, the “time to activation of ERK” value is “within hours”. Besides, in assay [1], the “speed of node loss / patterning defects” value is “took days to induce patterning defects”. In addition, in the assay with Wnt signaling, the “Wnt signaling (TopGFP normalized by mCherry)” value is “Inhibits Wnt Signaling”.
Consider `COc1cc2ncnc(Nc3ccc(F)c(Cl)c3)c2cc1OCCCN1CCOCC1` [Gefitinib], for which the “ERK waves and tropism towards dying cells” value in assay [2] was “did not induce ERK waves or display tropism towards dying cells”.
